Experimental data taken from publication PMC7767178 (International Journal of Molecular Sciences, 2020).

Experiments:
A. veronii ACCC61732 = experiment: SEM morphology; assay type: cell-based; settings: 4× MIC, 2 h
Experimental: MDR A. veronii ACCC61732 cells were cultured in MHB at 37 °C (250 rpm) until the mid-log phase of growth, harvested by centrifugation, and diluted with 0.01 M PBS (pH 7.4) to 0.5–5 × 10^8 CFU/mL. […] For SEM, the samples were harvested (5000× g, 5 min) and fixed with 2.5% glutaraldehyde at 4 °C overnight. The cells were dehydrated for 10 min in a graded ethanol series (50%, 70%, 90%, and 100%) and transferred to a mixture of 100% ethanol, tertiary butanol, and absolute tertiary butanol (v:v = 1:1) for 15 min. Finally, the specimens were dehydrated in a critical point dryer with liquid CO2, coated with gold–palladium, and observed using a QUANTA200 (FEI, Philips, Amsterdam, Netherlands).

proteinase K = proteinase K (Parengyodontium album, UniProt P06873); settings: proteinase K 40 mAU/mg, pH 7.0, peptide:enzyme 10:1 (w/w); MIC against A. veronii ACCC61732; triplicate
Sequence of proteinase K (P06873 106-384): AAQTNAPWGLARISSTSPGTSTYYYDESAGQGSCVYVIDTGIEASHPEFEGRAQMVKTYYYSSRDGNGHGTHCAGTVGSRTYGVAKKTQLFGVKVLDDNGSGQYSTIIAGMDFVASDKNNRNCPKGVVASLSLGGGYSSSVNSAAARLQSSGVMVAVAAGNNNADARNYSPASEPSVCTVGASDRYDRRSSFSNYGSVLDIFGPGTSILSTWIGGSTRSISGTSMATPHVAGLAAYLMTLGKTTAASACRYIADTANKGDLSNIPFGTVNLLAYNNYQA

In the case of `CC(C)[C@H]1NC(=O)CNC(=O)[C@@H](CC(N)=O)NC(=O)[C@@H](CCCNC(=N)N)NC(=O)[C@@H](Cc2ccc(O)cc2)NC(=O)[C@@H](C(C)C)NC(=O)[C@H](NC(=O)[C@H](NC(=O)[C@@H](CC(N)=O)NC(=O)[C@@H](Cc2c[nH]c3ccccc23)NC(=O)[C@@H](C)NC(=O)[C@@H](Cc2ccccc2)NC(=O)CN)C(C)C)CSSC[C@H](C(=O)N[C@H](Cc2c[nH]cn2)C(=O)N[C@H](CCCNC(=N)N)C(=O)N[C@H](CCCNC(=N)N)C(=O)N[C@H](C)C(=O)N[C@H](CC(N)=O)C(N)=O)NC(=O)[C@@H](C(C)C)NC(=O)[C@@H](CCCNC(=N)N)NC1=O` [DN6NH2], the “cells producing filamentous substances” value (A. veronii ACCC61732) was “over 50%”.
For `CC(C)[C@@H]1NC(=O)CNC(=O)[C@H](CC(N)=O)NC(=O)[C@H](CCCNC(=N)N)NC(=O)[C@H](Cc2ccc(O)cc2)NC(=O)[C@H](C(C)C)NC(=O)[C@@H](NC(=O)[C@@H](NC(=O)[C@H](CC(N)=O)NC(=O)[C@H](Cc2c[nH]c3ccccc23)NC(=O)[C@H](C)NC(=O)[C@H](Cc2ccccc2)NC(=O)CN)C(C)C)CSSC[C@@H](C(=O)N[C@@H](Cc2cnc[nH]2)C(=O)N[C@@H](CCCNC(=N)N)C(=O)N[C@@H](CCCNC(=N)N)C(=O)N[C@@H](C)C(=O)N[C@@H](CC(N)=O)C(N)=O)NC(=O)[C@H](C(C)C)NC(=O)[C@H](CCCNC(=N)N)NC1=O` [N6NH2], the “MIC after proteinase K treatment” value (proteinase K) was > 128 µg/mL.
